Earlier results on one compound are cited in patent US20070105912A1, “Pharmaceutical compositions comprising lercanidipine” (priority 2003, published 2007).

Values joined by “and” are separate entries in the source; they are usually repeats but may differ in a detail not shown here. Equal entries are not always repeated.

In data set [1] the test system is plasma proteins.

Turning to `COC(=O)C1=C(C)NC(C)=C(C(=O)OC(C)(C)CN(C)CCC(c2ccccc2)c2ccccc2)C1c1cccc([N+](=O)[O-])c1` (centres unmarked) [Lercanidipine, methyl 1,1-N-trimethyl-N-(3,3-diphenylpropyl)aminoethyl 1,4dihydro 6-dimethyl (3-nitrophenyl)pyridine-3,5-dicarboxylate], the “Terminal elimination t1/2” value (in vivo) was 2 to 5 h. The “Time of peak plasma levels following dosing” value (oral administration) is 1.5 to 3 h. Also, the “Fraction of the oral dose excreted in urine” value (oral dose) was “about 50%”. Also, the “Increase of amount absorbed with simultaneous intake of food” value (oral, with food vs without food) is 3 to 4 times and 3-4 times. For the same compound, the “Bound to plasma proteins” value in data set [1] was “more than 98%”.
